From patent US8933106B2, “2-(4-substituted phenylamino) polysubstituted pyridine compounds as inhibitors of non-nucleoside HIV reverse transcriptase, preparation methods and uses thereof” (Institute of Pharmacology and Toxicology Academy of …, priority 2008, dated 2015) come the findings set out here.

The EC50 is the concentration needed to bring the measured effect to its halfway point. A word on the CC50: it is the concentration at which the toxic effect on the cells reaches its halfway point. A high value points to lower toxicity to the cells.

≈ marks a conversion by molar mass, not a printed value.

What all share (format): cell-based
One data set has as its system HIV virus (IIIB). The data set is described as follows: Anti-HIV activity test (H9 cell model), P24 antigen ELISA. The note with it: for SI(CC50/EC50): H9 cells, ratio of toxicity CC50 value to activity EC50 value; for EC50: Human immunodeficiency virus 1, 96 h, H9 cells infected with HIV (IIIB), 4 days, P24 antigen. As to the method:
(§1) Please refer to the document (J. Med. Chem. 2004, 47, 756-760). Lymphocytes H9 were cultivated in culture medium 1640, under the conditions of 5% CO2, 37° C. The test compound was initially dissolved in DMSO, and then diluted with culture medium to conventional screening concentrations: 100, 20, 4, 0.8 μg/mL. The cultivated H9 cells were divided into two portions, one of which was infected with HIV virus (IIIB) (m.i.o. 0.1-0.01 infectious Units/cell), and used for the determination of activity. Another portion of the cells, in which no virus, but merely culture medium was added, was used for the determination of toxicity. After having been cultivated under completely the same conditions (37° C., 5% CO2) for 4 h, the two portions of cells were washed with fresh culture medium for 3 times, and then respectively added to different concentrations of test samples as formulated or to blank culture medium (the latter is positive infection control or negative drug control), while using AZT as positive drug control. All of these cells were cultivated under the conditions of 5% CO2, 37° C. for 4 days. On the 4th day, the cell membranes of the cells infected with virus were firstly removed, and the cytosol was tested by using P24 antigen ELISA assay to determine the activity of the samples, which was expressed as EC50. EC50 meant an effective concentration at which 50% of virus replication was inhibited. The portion of cells in which no virus was added was tested by using cytometry to determine the toxicity of the samples, which was expressed as CC50. CC50 meant a concentration at which 50% of living cells were killed.
Background: An ELISA detects its analyte on a solid surface through an enzyme-linked reagent.

A short description of data set [1]: Toxicity in uninfected H9 cells. The note with it: human, uninfected H9 lymphocytes, no virus. As to the method:
as §1, with “All of these cells were cultivated under the conditions of 5% CO2, 37° C. for 4 days.” left out, “EC50 meant an effective concentration at which 50% of virus replication was inhibited.” left out, “CC50 meant a concentration at which 50% of living cells were killed.” left out

A further data set has as its system HIV-1IIIB virus strain. Description: Anti-HIV activity test (MT-2 cell model), p24 antigen ELISA. To be noted: MT-2 cells; for EC50: Human immunodeficiency virus 1, MT2, HIV-1IIIB, 4th day, p24 antigen; for SI(CC50/EC50): ratio of toxicity CC50 value to activity EC50 value. As to the method:
Please refer to the document (Jiang, S., et al. Antimicrob. Agents Chemother. 2004, 48, 4349-4359). In a 96-pore cell culture plate, 50 μl of different concentrations of compound solutions were respectively mixed with equal-volume of HIV-1IIIB virus strain (100 TCID50), and incubated at 37° C. for 30 min, and then 100 μl MT-2 cell (1×10^5/mL, RPIM 1640 culture medium containing 10% serum) was added, and mixed homogenously, followed by incubation at 37° C. overnight. On the second day, 150 μl of the supernatant was sucked out, and equal-volume of fresh culture medium was replenished, followed by further incubation at 37° C. for 3 days. On the 4th day, cytopathic effect (CPE) was recorded. Thereafter, 100 μl of culture supernatant was sucked out, virus particles were split using 5% Triton X-100, and p24 antigen therein was tested by using ELISA assay. Briefly, a ELISA plate was coated with HIVIG (2 μg/mL), and blocked with 1% fat-free milk, then a virus lysate was added therein, followed by incubation at 37° C. for 60 min. After fully washing the plate, anti-p24 monoclonal antibody-183-12H-5C, biotin-labeled goat antimouse antibody and […]-labeled horseradish peroxidase were added in sequence. Then, after developing with TMB, OD was tested at 450 nm. The 50% effective concentration (EC50) of the compound was calculated using CalcuSyn software.

Data set [2] is described as follows: Cytotoxicity test of the compound (MT-2 cells, XTT). To be noted: human, 4th day. As to the method:
Please refer to the document (Jiang, S., et al. Antimicrob. Agents Chemother. 2004, 48, 4349-4359). In a 96-pore cell culture plate, 50 μl of different concentrations of compound solutions were respectively mixed with equal-volume of PBS, and incubated at 37° C. for 30 min, and then 100 μl MT-2 (or H9) cells (1×10^5/mL, RPIM 1640 culture medium containing 10% serum) was added, and mixed homogenously, followed by incubation at 37° C. overnight. On the second day, 150 μl of the supernatant was sucked out, and equal-volume of fresh culture medium was replenished, followed by further incubation at 37° C. for 3 days. On the 4th day, 50 μl of a XTT solution (1 mg/mL) containing PMS as freshly prepared was added. After 4 h, OD at 450 nm was tested. The 50% cytotoxicity concentration (CC50) of the compound was calculated using CalcuSyn software.
(Formazan colour is commonly taken as a measure of viable cells.)

In the case of `Cc1cc(C#N)cc(C)c1Oc1ccc([N+](=O)[O-])c(Nc2ccc(C#N)cc2)n1` [Compound I-2, 2-(4-cyanophenylamino)-6-(2,6-dimethyl-4-cyanophenoxy)-3-nitropyridine], the “SI(CC50/EC50)” value is >10,000 in the data set with HIV virus (IIIB) and 371 with HIV-1IIIB virus strain. Also, the EC50 turned out to be 0.0025 µg/mL (≈ 0.00649 µM) in the data set on HIV virus (IIIB) and 0.052 µg/mL (≈ 0.135 µM) with HIV-1IIIB virus strain. Further, the CC50 at 4 days in data set [1] is more than 25 µg/mL; in data set [2], 19.3 µg/mL (≈ 50.1 µM).

For `Cc1cc(Br)cc(C)c1Oc1ccc([N+](=O)[O-])c(Nc2ccc(C#N)cc2)n1` [Compound I-1, 2-(4-cyanophenylamino)-6-(2,6-dimethyl-4-bromophenoxy)-3-nitropyridine], the figures for the “SI(CC50/EC50)” value in the data set on HIV virus (IIIB) and in the data set on HIV-1IIIB virus strain were more than 774 and 62, respectively. In addition, the EC50 was less than 0.025 µg/mL in the data set with HIV virus (IIIB) and 0.52 µg/mL (≈ 1.18 µM) in the data set on HIV-1IIIB virus strain. Also, the values for the CC50 at 4 days in data set [1] and in data set [2] were 19.4 µg/mL (≈ 44.1 µM) and 32.2 µg/mL (≈ 73.4 µM), respectively.
